Measurements reported in article PMC8550792, “Evolution of kinase polypharmacology across HSP90 drug discovery” (Cell Chemical Biology, 2021).
Where two headings read alike, the source gives them in different places. Each block holds one compound with its values, some of them ahead of it.

Columns and labels:
[1] = known interaction (K) listed by CLARITY, cited from earlier work
382 unique human kinases [2] = experiment: biochemical; format: biochemical; settings: cutoff of >85% inhibition at 10 μM; luminespib and ganetespib large kinome panel, others 16-kinase panel
ABL1 = ABL1 (Homo sapiens, UniProt P00519); experiment: HotSpot in vitro kinase radiometric assay; format: biochemical; set-up: purchased Reaction Biology (HotSpot contract assay); settings: 10uM, ATP 40 uM, Data 1, Data 2
FGR = target: T1, FGR (Homo sapiens, UniProt P09769); experiment: HotSpot in vitro kinase radiometric assay; format: biochemical; settings: 10uM, ATP 50 uM, Data 1, Data 2
T1 construct: purchased Reaction Biology (HotSpot contract assay)

DDR1 = DDR1 (Homo sapiens, UniProt Q08345); experiment: HotSpot in vitro kinase radiometric assay; format: biochemical; set-up: purchased Reaction Biology (HotSpot contract assay); settings: 10uM, ATP 100 uM, Data 1, Data 2
16-kinase panel = 16-kinase panel screening, in vitro radiometric assay; format: biochemical, human; settings: 10 μM
ABL2/ARG = target: T2, ABL2/ARG (Homo sapiens, UniProt P42684); experiment: HotSpot in vitro kinase radiometric assay; format: biochemical; settings: 10uM, ATP 30 uM, Data 1, Data 2
T2 construct: purchased Reaction Biology (HotSpot contract assay)

YES/YES1 = target: T3, YES/YES1 (Homo sapiens, UniProt P07947); experiment: HotSpot in vitro kinase radiometric assay; format: biochemical; settings: 10uM, ATP 50 uM, Data 1, Data 2
T3 construct: purchased Reaction Biology (HotSpot contract assay)

PASK = target: T4, PASK (Homo sapiens, UniProt Q96RG2); experiment: HotSpot in vitro kinase radiometric assay; format: biochemical; settings: 10uM, ATP 50 uM, Data 1, Data 2
T4 construct: purchased Reaction Biology (HotSpot contract assay)
From the text: (§1) Accordingly, we selected five additional representative HSP90 inhibitors, at least one from each chemical class, including both synthetic inhibitors and natural products.
(§2) Accordingly, we screened the hit compound and the two leads for kinase off-target inhibition using the 16-kinase panel and the same in vitro catalytic assay used previously.
(§3) This radioisotope binding assay was designed to directly detect the true product without the use of modified substrates, coupling enzymes, or detection antibodies thus enabling to directly measure inhibition of catalytic activity. Test or control compounds were incubated with kinase, substrate, cofactors, and radioisotope-labeled ATP (32P-ɣ-ATP or 33P-ɣ-ATP). The reaction mixtures were then spotted onto filter papers, which bind the radioisotope-labeled catalytic product.

TRKA = target: T5, TRKA (Homo sapiens, UniProt P04629); experiment: HotSpot in vitro kinase radiometric assay; format: biochemical; settings: 10uM, ATP 100 uM, Data 1, Data 2
T5 construct: purchased Reaction Biology (HotSpot contract assay)
From the text: as §1, §2, §3

FYN = target: T6, FYN (Homo sapiens, UniProt P06241); experiment: HotSpot in vitro kinase radiometric assay; format: biochemical; settings: 10uM, ATP 30 uM, Data 1, Data 2
T6 construct: purchased Reaction Biology (HotSpot contract assay)

TRKC = target: T7, TRKC (Homo sapiens, UniProt Q16288); experiment: HotSpot in vitro kinase radiometric assay; format: biochemical; settings: 10uM, ATP 100 uM, Data 1, Data 2
T7 construct: purchased Reaction Biology (HotSpot contract assay)

HSP90AB1 = tested on: HSP90AB1; set-up: method as in ChEMBL23 (accessed: 23/08/2018); settings: average of reported values; ref ChEMBL23 (accessed: 23/08/2018); cited from earlier work
BLK = target: T8, BLK (Homo sapiens, UniProt P51451); experiment: HotSpot in vitro kinase radiometric assay; format: biochemical; settings: 10uM, ATP 10 uM, Data 1, Data 2
T8 construct: purchased Reaction Biology (HotSpot contract assay)
Method: (§4) Accordingly, we selected five additional representative HSP90 inhibitors, at least one from each chemical class, including both synthetic inhibitors and natural products. […]
as §3

c-Src = target: T9, c-Src (Homo sapiens, UniProt P12931); experiment: HotSpot in vitro kinase radiometric assay; format: biochemical; settings: 10uM, ATP 15 uM, Data 1, Data 2
T9 construct: purchased Reaction Biology (HotSpot contract assay)
Method: as §4, §3

PDK4/PDKH4 = target: T10, PDK4/PDKH4 (Homo sapiens, UniProt Q16654); experiment: HotSpot in vitro kinase radiometric assay; format: biochemical; settings: 10uM, ATP 30 uM, Data 1, Data 2
T10 construct: purchased Reaction Biology (HotSpot contract assay)
Method: as §4, §3

LYN B = target: T11, LYN B (Homo sapiens, UniProt P07948); experiment: HotSpot in vitro kinase radiometric assay; format: biochemical; settings: 10uM, ATP 20 uM, Data 1, Data 2
T11 construct: purchased Reaction Biology (HotSpot contract assay)
Method: as §4, §3

PDK2/PDHK2 = target: T12, PDK2/PDHK2 (Homo sapiens, UniProt Q15119); experiment: HotSpot in vitro kinase radiometric assay; format: biochemical; settings: 10uM, ATP 15 uM, Data 1, Data 2
T12 construct: purchased Reaction Biology (HotSpot contract assay)
Method: as §4, §3

PEAK1 = target: T13, PEAK1 (Homo sapiens, UniProt Q9H792); experiment: HotSpot in vitro kinase radiometric assay; format: biochemical; settings: 10uM, ATP 30 uM, Data 1, Data 2
T13 construct: purchased Reaction Biology (HotSpot contract assay)

LCK = target: T14, LCK (Homo sapiens, UniProt P06239); experiment: HotSpot in vitro kinase radiometric assay; format: biochemical; settings: 10uM, ATP 15 uM, Data 1, Data 2
T14 construct: purchased Reaction Biology (HotSpot contract assay)

TRAP1 = tested on: TRAP1; set-up: method as in ChEMBL23 (accessed: 23/08/2018); settings: average of reported values; ref ChEMBL23 (accessed: 23/08/2018); cited from earlier work
HSP90AA1 = settings: average of reported values; ref ChEMBL23 (accessed: 23/08/2018); cited from earlier work
382 unique human kinases [3] = target: T15, 382 unique human kinases (Homo sapiens, UniProt Q9BQI3); experiment: biochemical; format: biochemical; settings: EIF2AK1; read-out: Control Compound IC50*
T15 construct: purchased Reaction Biology (HotSpot contract assay)

382 unique human kinases [4] = target: T16, 382 unique human kinases (Homo sapiens, UniProt P37173); experiment: biochemical; format: biochemical; settings: kinase TGFBR2; read-out: Control Compound IC50*
T16 construct: purchased Reaction Biology (HotSpot contract assay)

382 unique human kinases [5] = target: T17, 382 unique human kinases (Homo sapiens, UniProt Q96QT4); experiment: biochemical; format: biochemical; settings: kinase TRPM7/CHAK1; read-out: Control Compound IC50*
T17 construct: purchased Reaction Biology (HotSpot contract assay)

T3 sequence (P07947 whole entry): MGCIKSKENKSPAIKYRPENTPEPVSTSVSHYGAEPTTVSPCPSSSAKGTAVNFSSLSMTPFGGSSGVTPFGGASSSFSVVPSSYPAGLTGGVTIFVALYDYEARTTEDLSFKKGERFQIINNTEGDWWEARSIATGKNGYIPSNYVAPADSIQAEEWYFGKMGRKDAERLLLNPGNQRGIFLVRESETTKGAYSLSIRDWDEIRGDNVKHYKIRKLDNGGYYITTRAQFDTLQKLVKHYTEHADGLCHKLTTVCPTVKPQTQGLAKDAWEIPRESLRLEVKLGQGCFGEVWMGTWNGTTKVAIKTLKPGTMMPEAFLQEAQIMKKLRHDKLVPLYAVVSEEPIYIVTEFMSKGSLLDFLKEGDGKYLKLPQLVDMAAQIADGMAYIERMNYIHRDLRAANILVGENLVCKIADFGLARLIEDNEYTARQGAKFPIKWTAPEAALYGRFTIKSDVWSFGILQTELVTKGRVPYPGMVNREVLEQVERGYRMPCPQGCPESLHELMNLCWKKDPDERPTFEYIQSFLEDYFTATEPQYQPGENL
Chain of DDR1 (Q08345 19-913): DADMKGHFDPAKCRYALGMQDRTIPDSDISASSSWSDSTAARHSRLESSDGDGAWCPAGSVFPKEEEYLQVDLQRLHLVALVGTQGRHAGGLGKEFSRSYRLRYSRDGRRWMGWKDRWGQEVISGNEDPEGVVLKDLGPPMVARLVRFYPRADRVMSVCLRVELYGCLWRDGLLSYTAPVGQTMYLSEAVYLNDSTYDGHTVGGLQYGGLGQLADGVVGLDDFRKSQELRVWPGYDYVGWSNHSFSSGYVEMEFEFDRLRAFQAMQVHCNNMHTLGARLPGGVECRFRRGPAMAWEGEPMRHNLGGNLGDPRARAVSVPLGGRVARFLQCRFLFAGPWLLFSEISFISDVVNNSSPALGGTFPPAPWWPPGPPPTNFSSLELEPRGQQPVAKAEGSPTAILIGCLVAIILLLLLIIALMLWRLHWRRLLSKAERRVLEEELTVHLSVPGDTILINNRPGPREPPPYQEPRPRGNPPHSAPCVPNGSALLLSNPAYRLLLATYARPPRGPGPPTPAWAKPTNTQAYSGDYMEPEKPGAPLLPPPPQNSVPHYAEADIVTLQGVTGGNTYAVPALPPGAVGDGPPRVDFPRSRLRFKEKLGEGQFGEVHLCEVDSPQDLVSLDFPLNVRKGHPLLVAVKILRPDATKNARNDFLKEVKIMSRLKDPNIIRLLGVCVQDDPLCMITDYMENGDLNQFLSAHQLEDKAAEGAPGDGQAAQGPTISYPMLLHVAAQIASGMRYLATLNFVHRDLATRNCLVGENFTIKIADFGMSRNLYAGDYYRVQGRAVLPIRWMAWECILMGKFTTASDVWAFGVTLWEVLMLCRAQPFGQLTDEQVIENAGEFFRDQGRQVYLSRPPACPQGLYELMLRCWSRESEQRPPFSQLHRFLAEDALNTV
T7 sequence (Q16288 32-839): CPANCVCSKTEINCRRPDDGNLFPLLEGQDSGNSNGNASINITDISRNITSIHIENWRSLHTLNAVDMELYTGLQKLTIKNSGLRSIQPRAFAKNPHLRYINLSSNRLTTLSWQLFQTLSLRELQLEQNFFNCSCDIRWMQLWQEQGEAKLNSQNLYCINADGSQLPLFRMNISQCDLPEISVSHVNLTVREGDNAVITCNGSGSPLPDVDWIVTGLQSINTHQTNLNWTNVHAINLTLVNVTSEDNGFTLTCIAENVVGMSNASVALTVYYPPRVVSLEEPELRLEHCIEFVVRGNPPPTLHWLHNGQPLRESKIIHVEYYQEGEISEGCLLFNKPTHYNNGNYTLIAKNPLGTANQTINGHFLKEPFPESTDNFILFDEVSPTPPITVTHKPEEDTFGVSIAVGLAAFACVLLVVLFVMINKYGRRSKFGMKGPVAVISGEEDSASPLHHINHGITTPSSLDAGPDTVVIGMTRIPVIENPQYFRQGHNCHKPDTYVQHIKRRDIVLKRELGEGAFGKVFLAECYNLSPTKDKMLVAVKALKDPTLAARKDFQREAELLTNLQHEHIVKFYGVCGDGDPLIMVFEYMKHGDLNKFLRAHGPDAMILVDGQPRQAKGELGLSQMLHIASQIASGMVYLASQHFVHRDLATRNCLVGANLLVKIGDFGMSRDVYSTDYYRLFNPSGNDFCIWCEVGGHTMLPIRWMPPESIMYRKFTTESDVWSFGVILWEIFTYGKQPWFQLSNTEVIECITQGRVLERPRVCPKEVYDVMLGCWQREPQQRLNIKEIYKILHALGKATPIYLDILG
T14 sequence (P06239 whole entry): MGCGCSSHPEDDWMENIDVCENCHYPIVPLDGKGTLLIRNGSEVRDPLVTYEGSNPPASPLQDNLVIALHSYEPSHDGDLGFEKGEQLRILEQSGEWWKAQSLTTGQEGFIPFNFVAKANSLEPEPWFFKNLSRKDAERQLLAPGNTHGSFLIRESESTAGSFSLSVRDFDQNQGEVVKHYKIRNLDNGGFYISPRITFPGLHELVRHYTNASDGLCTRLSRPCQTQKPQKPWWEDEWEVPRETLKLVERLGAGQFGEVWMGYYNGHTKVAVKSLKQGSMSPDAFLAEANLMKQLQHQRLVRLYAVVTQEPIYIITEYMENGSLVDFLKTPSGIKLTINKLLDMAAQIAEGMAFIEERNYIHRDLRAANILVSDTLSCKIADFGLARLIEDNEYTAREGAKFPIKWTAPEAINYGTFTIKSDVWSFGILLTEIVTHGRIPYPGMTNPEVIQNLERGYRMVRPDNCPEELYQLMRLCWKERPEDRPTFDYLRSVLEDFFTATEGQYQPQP
T10 sequence (Q16654 whole entry): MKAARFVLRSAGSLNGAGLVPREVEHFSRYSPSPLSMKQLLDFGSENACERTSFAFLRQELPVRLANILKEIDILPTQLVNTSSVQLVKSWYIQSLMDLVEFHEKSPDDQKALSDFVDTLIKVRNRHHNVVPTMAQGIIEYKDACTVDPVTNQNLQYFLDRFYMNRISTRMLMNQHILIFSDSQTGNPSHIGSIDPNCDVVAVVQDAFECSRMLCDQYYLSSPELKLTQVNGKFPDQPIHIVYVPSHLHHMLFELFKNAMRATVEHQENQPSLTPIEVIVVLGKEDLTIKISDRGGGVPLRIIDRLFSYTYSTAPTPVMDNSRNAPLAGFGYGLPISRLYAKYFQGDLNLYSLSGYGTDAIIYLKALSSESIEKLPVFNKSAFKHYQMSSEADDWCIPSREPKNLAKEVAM
T4 sequence (Q96RG2 whole entry): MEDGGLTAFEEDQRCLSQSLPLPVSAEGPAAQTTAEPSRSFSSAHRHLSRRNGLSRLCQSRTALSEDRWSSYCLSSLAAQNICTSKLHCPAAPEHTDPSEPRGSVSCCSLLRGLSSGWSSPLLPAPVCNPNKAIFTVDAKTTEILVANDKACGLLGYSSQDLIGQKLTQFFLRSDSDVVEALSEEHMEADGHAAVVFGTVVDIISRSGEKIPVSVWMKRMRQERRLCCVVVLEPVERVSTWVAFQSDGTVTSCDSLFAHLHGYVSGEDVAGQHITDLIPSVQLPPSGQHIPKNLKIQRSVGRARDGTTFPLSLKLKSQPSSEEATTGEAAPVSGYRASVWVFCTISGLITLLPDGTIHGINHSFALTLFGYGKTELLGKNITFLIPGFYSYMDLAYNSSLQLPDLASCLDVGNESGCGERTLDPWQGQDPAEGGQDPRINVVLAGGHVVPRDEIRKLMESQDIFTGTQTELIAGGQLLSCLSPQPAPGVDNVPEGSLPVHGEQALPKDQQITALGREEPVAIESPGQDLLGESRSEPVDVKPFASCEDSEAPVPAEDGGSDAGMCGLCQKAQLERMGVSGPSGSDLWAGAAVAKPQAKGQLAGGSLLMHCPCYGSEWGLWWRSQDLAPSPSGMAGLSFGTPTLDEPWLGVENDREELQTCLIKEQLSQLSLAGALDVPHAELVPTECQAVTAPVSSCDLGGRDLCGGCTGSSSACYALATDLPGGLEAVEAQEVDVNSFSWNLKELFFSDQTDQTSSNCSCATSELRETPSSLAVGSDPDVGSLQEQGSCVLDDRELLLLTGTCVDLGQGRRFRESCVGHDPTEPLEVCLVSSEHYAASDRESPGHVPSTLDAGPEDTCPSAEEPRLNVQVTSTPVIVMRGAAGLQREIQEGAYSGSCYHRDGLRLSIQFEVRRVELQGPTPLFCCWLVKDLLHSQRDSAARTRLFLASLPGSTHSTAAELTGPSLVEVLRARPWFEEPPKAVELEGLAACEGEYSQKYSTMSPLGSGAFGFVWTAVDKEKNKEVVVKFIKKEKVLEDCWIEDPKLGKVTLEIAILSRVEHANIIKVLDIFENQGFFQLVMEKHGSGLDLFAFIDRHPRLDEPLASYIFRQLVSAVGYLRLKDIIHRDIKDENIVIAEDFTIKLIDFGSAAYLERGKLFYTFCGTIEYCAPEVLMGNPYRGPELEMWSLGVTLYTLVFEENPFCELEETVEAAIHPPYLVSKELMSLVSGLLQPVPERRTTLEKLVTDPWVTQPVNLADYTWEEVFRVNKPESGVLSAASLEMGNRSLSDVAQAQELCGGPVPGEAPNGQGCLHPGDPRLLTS
T9 sequence (P12931 whole entry): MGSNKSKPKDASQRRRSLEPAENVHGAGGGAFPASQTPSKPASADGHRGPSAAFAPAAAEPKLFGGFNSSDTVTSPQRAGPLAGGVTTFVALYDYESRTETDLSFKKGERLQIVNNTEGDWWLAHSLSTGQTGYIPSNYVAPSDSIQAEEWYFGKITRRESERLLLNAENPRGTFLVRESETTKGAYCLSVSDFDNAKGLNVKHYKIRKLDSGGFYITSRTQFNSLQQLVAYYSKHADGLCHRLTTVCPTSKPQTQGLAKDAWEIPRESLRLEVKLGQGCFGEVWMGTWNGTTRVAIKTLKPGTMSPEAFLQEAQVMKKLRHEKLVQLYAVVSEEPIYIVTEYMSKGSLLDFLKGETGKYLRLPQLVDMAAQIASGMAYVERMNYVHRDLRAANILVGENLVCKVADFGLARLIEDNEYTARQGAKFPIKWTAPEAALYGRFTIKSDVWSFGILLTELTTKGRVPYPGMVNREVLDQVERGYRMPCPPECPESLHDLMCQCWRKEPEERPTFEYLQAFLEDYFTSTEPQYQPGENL

number of off-target kinases experimentally identified, In vitro binding (KinomeSCAN) (382 unique human kinases [2]): 0
Structure (SMILES): COc1c(C)cnc(Cn2cnc3c(Cl)nc(N)nc32)c1C [BIIB021]
pACT(exp) ([1]; Endoplasmin (P14625)): 6.8
pACT(exp) ([1]; Heat shock protein 75 kDa, mitochondrial (Q12931)): 7.1
pACT(exp) ([1]; Heat shock protein HSP 90-alpha (P07900)): 8.1
pACT(exp) ([1]; Heat shock protein HSP 90-beta (P08238)): 7.8

Structure (SMILES): CN(C)c1cc2c(cc1Sc1nc3c(N)nccc3n1CCNCC(C)(C)C)OCO2 [Debio-0932]
% Enzyme Activity (relative to DMSO controls) (ABL1; ABL1): 104.74%
remaining activity at 10 µM (ABL1; read-out: % Enzyme Activity (relative to DMSO controls), ABL1): 111%
% Enzyme Activity (relative to DMSO controls) (FGR; FGR): 101.88%
remaining activity at 10 µM (FGR; read-out: % Enzyme Activity (relative to DMSO controls), FGR): 102%
% Enzyme Activity (relative to DMSO controls) (DDR1; DDR1): 85.1%
remaining activity at 10 µM (DDR1; read-out: % Enzyme Activity (relative to DMSO controls), DDR1): 94.8%
activity against the 16-kinase panel (16-kinase panel): inactive
% Enzyme Activity (relative to DMSO controls) (ABL2/ARG; ABL2/ARG): 106.65%
remaining activity at 10 µM (ABL2/ARG; read-out: % Enzyme Activity (relative to DMSO controls), ABL2/ARG): 107%
% Enzyme Activity (relative to DMSO controls) (YES/YES1; YES/YES1): 102.37%
remaining activity at 10 µM (YES/YES1; read-out: % Enzyme Activity (relative to DMSO controls), YES/YES1): 96%
% Enzyme Activity (relative to DMSO controls) (PASK; PASK): 102.33%
remaining activity at 10 µM (PASK; read-out: % Enzyme Activity (relative to DMSO controls), PASK): 101%
% Enzyme Activity (relative to DMSO controls) (TRKA; TRKA): 103.51%
remaining activity at 10 µM (TRKA; read-out: % Enzyme Activity (relative to DMSO controls), TRKA): 104%
% Enzyme Activity (relative to DMSO controls) (FYN; FYN): 102.22%
remaining activity at 10 µM (FYN; read-out: % Enzyme Activity (relative to DMSO controls), FYN): 103%
number of off-target kinases experimentally identified, In vitro binding (KinomeSCAN) (382 unique human kinases [2]): 0
% Enzyme Activity (relative to DMSO controls) (TRKC; TRKC): 97.21%
remaining activity at 10 µM (TRKC; read-out: % Enzyme Activity (relative to DMSO controls), TRKC): 93.3%
pActivity, HSP90AB1 (HSP90AB1): 7.42
% Enzyme Activity (relative to DMSO controls) (BLK; BLK): 109.86%
remaining activity at 10 µM (BLK; read-out: % Enzyme Activity (relative to DMSO controls), BLK): 110%
% Enzyme Activity (relative to DMSO controls) (c-Src; c-Src): 109.48%
remaining activity at 10 µM (c-Src; read-out: % Enzyme Activity (relative to DMSO controls), c-Src): 107%
% Enzyme Activity (relative to DMSO controls) (PDK4/PDKH4; PDK4/PDKH4): 111.02%
remaining activity at 10 µM (PDK4/PDKH4; read-out: % Enzyme Activity (relative to DMSO controls), PDK4/PDKH4): 111%
% Enzyme Activity (relative to DMSO controls) (LYN B; LYN B): 101.36%
remaining activity at 10 µM (LYN B; read-out: % Enzyme Activity (relative to DMSO controls), LYN B): 101%
% Enzyme Activity (relative to DMSO controls) (PDK2/PDHK2; PDK2/PDHK2): 100.31%
remaining activity at 10 µM (PDK2/PDHK2; read-out: % Enzyme Activity (relative to DMSO controls), PDK2/PDHK2): 108%
% Enzyme Activity (relative to DMSO controls) (PEAK1; PEAK1): 103.94%
remaining activity at 10 µM (PEAK1; read-out: % Enzyme Activity (relative to DMSO controls), PEAK1): 104%
% Enzyme Activity (relative to DMSO controls) (LCK; LCK): 109.56%
remaining activity at 10 µM (LCK; read-out: % Enzyme Activity (relative to DMSO controls), LCK): 110%
pActivity, TRAP1 (TRAP1): 5.8
pActivity, HSP90AA1 (HSP90AA1): 7.48

Structure (SMILES): Cn1cc(-c2ccc3c(c2)CCN3C(=O)Cc2cccc(C(F)(F)F)c2)c2c(N)ncnc21 [GSK-2606414]
IC50 (382 unique human kinases [3]): 92.1 nM

Structure (SMILES): c1ccc2c(-c3cnn4cc(-c5ccc(N6CCNCC6)cc5)cnc34)ccnc2c1 [LDN193189]
IC50 (382 unique human kinases [4]): 165 nM

Structure (SMILES): CCCCCCCCCCCCCCCCn1cc[n+](Cc2ccccc2)c1C [NH125]
IC50 (382 unique human kinases [5]): 9950 nM
